Source: US11110102B2, “Antifungal agents used in combination” (Scynexis, Inc., priority 2017, dated 2021)

Tests used:
A. fumigatus MRL #28500 = assay: Checkerboard combination MIC testing; type: cell-based, Aspergillus fumigatus; details: read at 48 hours, duplicate
From the text: To determine the type of interaction between a representative compound of the enfumafungin derivatives (SCY-078) with several antifungal agents against Aspergillus fumigatus, the most frequent mold causing invasive disease in humans, the checkerboard method was used. The citrate salt of the compound was used in the studies.
The checkerboard method involves the determination of percent growth inhibition of fungal cells in the presence of different combinations of drugs. Percent growth inhibition is calculated relative to growth in control wells which contain only cells and no drug. The assay was performed in 96-well microplates in which each row and each column contained twofold serial dilutions of drug A and drug B at concentrations ranging from 0 to slightly higher than their minimum inhibitory concentration (MIC). […] Then the inoculum was added to each well and the growth was evaluated after 48 hrs incubation to determine the first well in which growth was inhibited. The checkerboard-based determination of MICs of antifungal agents in combination was followed by further analysis employing the nonparametric fractional inhibitory concentration index (FICI), which is defined by the following equation:
[formula] where MIC-A and MIC-B are the MICs of drugs A and B, respectively.
Each drug was initially diluted in either sterile, distilled water or in DMSO, depending on whether the drug was water-soluble or water-insoluble, respectively.
Stock solution of SCY-078 was prepared in DMSO at 200 times the concentration desired for use in the drug plates. Serial dilutions of stock solution were conducted in DMSO to obtain eleven 2-fold dilutions of the drug. The SCY-078 solution was then diluted to 4 times the desired concentration in RPMI-1640 medium so that the DMSO would not limit growth of the organism and so that the quantity of DMSO was the same for every dilution.
Two 96-well plates are needed to conduct a combination test. Using a multichannel pipette, 50 μl of the lowest concentration of the first drug (Drug A) was added to each well of column 1 of the first plate (plate A) and column 1 of the second plate (plate B; rows A-D). Then, 50 μl of the next highest working dilution of Drug A was added to each well in column 2, continuing with dilutions until all columns 1-11 were filled. Column 12 was left empty. 50 μl of the lowest concentration of Drug B was added to each well in Row D of plate B. 50 μl of the next highest working dilution of Drug B was added to each well in row C of plate B, continuing with dilutions until all rows through row B of plate A were filled.
Following the above, 100 μl of organism inoculum was added to every well. The plates were then incubated for 48 hours and visually read after incubation.
The objective of the study was to determine whether the combination of SCY-078 with voriconazole, isavuconazole, or amphotericin B would result in a combined in vitro antifungal activity exceeding the sum of the activities of each drug alone. Combination MIC testing was performed using the checkerboard assay described above.
A. fumigatus 28500 has a CYP51 mutation at F46Y.
Initial MIC determinations of the individual antifungals were performed according to the Clinical and Laboratory Standards Institute (CLSI) M38-A2 standard for the susceptibility testing of filamentous fungi.
Combination MIC testing was performed using a checkerboard test method according to the Center for Medical Mycology SOP A11.3. The checkerboard combination test method is a modification of the microdilution antifungal susceptibility test wherein two test compounds are combined in varying concentrations to determine whether they have synergistic, antagonistic, or no effect on the respective MIC values.
Antifungals were serially diluted two-fold in RPMI medium to produce eleven concentrations each and were combined in wells of a microtiter plate. Two rows consisting of serial dilutions of each individual drug were included. […]

[1] = tested on: NIH Aspergillus fumigatus isolate 4215; assay: Neutropenic rabbit model of invasive pulmonary aspergillosis (New Zealand White rabbits); type: in vivo; details: intravenously once daily
Protocol: A study was conducted to evaluate the efficacy of the combination of SCY-078 with isavuconazole. Isavuconazole is a second generation antifungal triazole with activity against Aspergillus spp. As described above, invasive pulmonary aspergillosis is a life-threatening infection in immunosuppressed patients—particularly those with severe and prolonged neutropenia as a consequence of myelotoxic chemotherapy for the treatment of cancer, and those receiving immunosuppressive medication for rejection prophylaxis after organ transplantation or treatment of graft-versus-host disease (GVHD) after allogeneic bone marrow transplantation. A neutropenic rabbit model was selected for this in vivo evaluation to further illustrate the effect of the combination therapy of SCY-078 and an azole, in a relevant immunosuppressed population.
New Zealand White rabbits weighing 2.5 to 3.5 kg (Covance Research Products, Inc., Denver, Pa.) were used in this study. Vascular access was established by the surgical placement of a silastic tunneled central venous catheter. Cytosine arabinoside (Cytosar-U) 525 mg/m^2 was administered intravenously on days 1 through 5, and on days 8, 9, 13 and 14 to produce profound and persistent neutropenia (a neutrophil concentration of <100 neutrophils/μL). Methylprednisolone (Solu-Medrol®, Pfizer, NY) 5 mg/kg was administered on days 1 through 3 to inhibit macrophage activity. […]
Survival, pulmonary infarct, and galactomannan antigenemia (a serological marker of Aspergillus infection) were evaluated as indicators of treatment response. […] Serum galactomannan concentrations were determined by the Platelia® Aspergillus enzyme immunoassay (EIA) (Bio-Rad, Marnes-la-Coquette, France) one-stage immunoenzymatic sandwich microplate assay method. Enzyme immunoassay data were expressed as a serum GMI (galactomannan index) plotted over time.

Row | SMILES | MIC in Combination (A. fumigatus MRL #28500; A. fumigatus MRL 28500 (azole-resistant, CYP51 F46Y), SCY-078 combined with voriconazole) [µg/mL] | MIC Alone (A. fumigatus MRL #28500; A. fumigatus MRL 28500 (azole-resistant, CYP51 F46Y), drug alone, SCY-078/voriconazole test) [µg/mL] | survival rate up to day 13 ([1]; SCY2.5: SCY-078 2.5 mg/kg/day alone, 1 out of 6) [%] | survival until day 13 ([1]; SCY7.5: SCY-078 7.5 mg/kg/day alone, six per group) | MIC per drug in Combination (A. fumigatus MRL #28500; A. fumigatus MRL 28500 (azole-resistant, CYP51 F46Y), SCY-078 combined with isavuconazole) [µg/mL] | MIC (A. fumigatus MRL #28500; Aspergillus fumigatus, SCY078, 48 h, read-out: MIC per drug Alone, A. fumigatus MRL 28500 (azole-resistant, CYP51 F46Y), drug alone, SCY-078/isavuconazole test) [µg/mL] | survival rate up to day 13 ([1]; ISA40: isavuconazole 40 mg/kg/day alone, 2 out of 6) [%]
1 | CC(C)[C@@H](C)[C@@]1(C)CC[C@]2(C)[C@H]3CC[C@@H]4[C@@]5(COC[C@@]4(C)[C@@H](OC[C@](C)(N)C(C)(C)C)[C@H](n4ncnc4-c4ccncc4)C5)C3=CC[C@@]2(C)[C@@H]1C(=O)O [SCY-078, (1S,4aR,6aS,7R,8R,10aR,10bR,12aR,14R,15R)-15-[[(2R)-2-amino-2,3,3-trimethylbutyl]oxy]-8-[(1R)-1,2-dimethylpropyl]-14-[5-(4-pyridinyl)-1H-1,2,4-triazol-1-yl]-1,6,6a,7,8,9,10,10a,10b,11,12,12a-dodecahydro-1,6a,8,10a-tetramethyl-4H-1,4a-propano-2H-phenanthro[1,2-c]pyran-7-carboxylic acid] | 1 | 8 | 16 | no animals surviving until day 13 | – | – | –
2 | C[C@@H](c1nc(-c2ccc(C#N)cc2)cs1)[C@](O)(Cn1cncn1)c1cc(F)ccc1F [Isavuconazole, isavuconazole] | – | – | – | – | >8 | > 8 | 32
